Data taken from US20150368248A1, “2-SUBSTITUTED-6-BIARYLMETHYLAMINO-9-CYCLOPENTYL-9H-PURINE DERIVATIVES, USE THEREOF AS MEDICAMENTS, AND PHARMACEUTICAL COMPOSITIONS” (UNIVERZITA PALACKEHO V OLOMOUCI, priority 2013, published 2015).
Where two headings read alike, the source gives them in different places.

What was measured:
[1] = tested on: HepG2 or PLC cells; assay: BrdU incorporation in cultured cells; assay type: cell-based, human; settings: 1 μM, 24 hours
Procedure: BrdU incorporation into cell nuclei directly indicates cell proliferation. Cultured cells were grown in medium containing 10 μM 5-bromo-2′-deoxy-uridine (BrdU) for 1 hour. After removing labeling medium, cells were fixed and DNA denatured with a fixing/denaturing solution containing 2 M HCl for 30 minutes at 37° C. To analyze BrdU incorporation in vivo, 200 μl Ringer solution containing 1 mg BrdU was intraperitoneally injected into xenografted mice 2 hours prior to analysis. Mice were sacrificed and tumor tissue was fixed in 4% formaldehyde and processed for immunohistochemistry. The incorporation of BrdU into cellular DNA was detected using a monoclonal anti-BrdU antibody (Sigma, St. Louis, USA) followed by incubation with a peroxidase-conjugated secondary antibodies (Calbiochem, LaJolla, USA) at dilutions of 1:10,000.

[2] = tested on: RNA polymerase II phosphorylation at serines 2 and 5; assay: Immunoblot of RNA polymerase II phosphorylation (CDK7/CDK9 substrate); assay type: cell-based, human
Procedure: We monitored levels of phosphorylation of RNA polymerase II, which is a substrate of CDK7 and CDK9, in cells treated with compound BP14 (FIG. 3). Immunoblotting analysis was performed as described in Example 33 with using appropriate antibodies for anti-phospho RNA polymerase II (S5) (Bethyl Laboratories, USA), anti-phospho RNA polymerase II (S2) (Bethyl Laboratories, USA), anti-RNA polymerase II (clone ARNA-3, Millipore) and β-actin (clone C4, Santa Cruz Biotechnology, USA).
Immunoblotting was performed as described previously (36). The primary antibodies were used at the dilutions: anti-phospho-Ser5 RNA Pol II (CDK7; Bethyl Laboratories, Montgomery, USA), 1:1,000; anti-phospho-Ser2 RNA Pol II (CDK9; Bethyl Laboratories, Montgomery, USA), 1:1,000; anti-RNA Pol II (Santa Cruz Biotechnology, Santa Cruz, USA), 1:1,000; anti-PARP (Cell Signaling Technology, Beverly, USA), 1:1,000; anti-β-actin (Sigma, St. Louis, USA), 1:2.500. Horseradish peroxidase-conjugated secondary antibodies (Calbiochem, LaJolla, USA) were used at dilutions of 1:10,000.

[3] = tested on: HepG2; assay: Determination of long-term chemosensitivity (MTT); assay type: cell-based; settings: Homo sapiens, read-out: IC50 for BP14, HepG2
Procedure: (§1) Cell viability was determined using the 3-(4,5 dimethylthiazol-2-yl)-2,5-diphenyltetrazolium bromide (MTT) assay. Briefly, cells were seeded in triplicates at a density of 6×10^3 cells per well. After 24 hours, cells were incubated with drug-containing medium for 72 hours. Cells were incubated with MTT solution (5 mg/ml; Sigma, St. Louis, USA) and medium was replaced with DMSO after five hours. The absorbance was measured at 620 nm by employing a microplate reader (Asys HiTech, Salzburg, Austria). MTT assays were repeated 3 times for each drug application and untreated cells were used as reference. IC50 values were obtained by log-linear interpolation of data points and are depicted by dose-response curves using the software GraphPad Prism® 5.01.
(§2) The selection of chemoresistant cells was monitored every 6 weeks by the determination of IC50 values using the MTT assay. HCC cells showing higher IC50 values after treatment with inhibitors as compared to untreated cells are considered as chemoresistant.

[4] = tested on: Hep3B; assay: Determination of long-term chemosensitivity (MTT); assay type: cell-based; settings: Homo sapiens
Procedure: as §1, §2

[5] = target: T1, CDK5/p35 (Homo sapiens, UniProt Q00535); assay: Kinase inhibition assay, recombinant kinase, [γ-33P]ATP; assay type: biochemical; settings: Table 12; read-out: IC50, CDK5/p25NCK
T1 construct: purchased ProQinase GmbH (Freiburg, Germany)
T1 sequence (Q00535 whole entry): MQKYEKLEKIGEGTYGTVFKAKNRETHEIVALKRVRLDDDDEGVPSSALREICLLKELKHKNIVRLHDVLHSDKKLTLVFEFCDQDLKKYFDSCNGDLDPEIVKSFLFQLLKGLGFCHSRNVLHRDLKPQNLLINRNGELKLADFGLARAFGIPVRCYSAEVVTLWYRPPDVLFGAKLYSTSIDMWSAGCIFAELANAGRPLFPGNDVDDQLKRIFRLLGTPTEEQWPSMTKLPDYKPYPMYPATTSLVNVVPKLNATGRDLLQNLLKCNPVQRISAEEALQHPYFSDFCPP
T1 sequence (Q15078 whole entry partner): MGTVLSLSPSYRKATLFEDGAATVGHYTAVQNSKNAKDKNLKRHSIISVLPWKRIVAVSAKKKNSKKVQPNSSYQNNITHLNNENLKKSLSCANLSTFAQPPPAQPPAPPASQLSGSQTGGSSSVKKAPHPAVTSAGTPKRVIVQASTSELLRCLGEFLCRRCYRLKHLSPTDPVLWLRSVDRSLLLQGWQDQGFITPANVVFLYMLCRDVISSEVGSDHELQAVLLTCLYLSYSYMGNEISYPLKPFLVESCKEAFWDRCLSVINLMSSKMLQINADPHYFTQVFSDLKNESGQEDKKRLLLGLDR

[6] = tested on: Mcl-1; assay: Immunoblot analysis of anti-apoptotic protein Mcl-1; assay type: cell-based; settings: Hep3B, PLC/PRF/5 and AKH3p cell lines, 24 hours
Procedure: Effect of BP14 on cell apoptosis was complemented by immunoblot analysis of selected apoptotic proteins. For immunoblotting, cell were detached with rubber policeman and washed three times with ice-cold PBS and lysed in buffer (50 mM Tris, pH 7.4, 250 mM NaCl, 5 mM EDTA, 50 mM NaF, 1 mM Na3VO4, 1% Nonidet P40) containing mixture of protease and phosphatase inhibitors (Sigma-Aldrich, USA). 20 μg of total proteins were separated by SDS-polyacrylamide gel electrophoresis (SDS-PAGE) and transferred onto nitrocellulose membranes. Membranes were blocked in 5% milk and 0.1% Tween 20 in PBS and probed overnight with specific antibodies for PARP-1 (clone F-2; Santa Cruz Biotechnology, USA), Mcl-1 (S-19; Santa Cruz Biotechnology, USA) and β-actin (C-4, Santa Cruz Biotechnology, USA). All primary antibodies were diluted in PBS containing 5% powdered milk; 0.1% Tween 20. Peroxidase conjugated rabbit anti-mouse immunoglobulin or porcine anti-rabbit immunoglobulin antisera (DAKO, Denmark) were used as the secondary antibodies and visualised with ECL reagents (Amersham-Pharmacia, Little Chalfont, UK).

[7] = tested on: HepG2 and PLC cells; assay: Clonogenic survival assay; assay type: cell-based, human; settings: 0.2 μM
Procedure: To analyze the clonogenic growth behavior of cell populations on tissue culture plastic, 500 cells were seeded in a 6-well plate and, either untreated or pretreated with BA-12 or BP-14 for 24 hours, incubated with standard medium for 10 days at 37° C. and 5% CO2. Colonies were fixed with methanol/acetic acid (3:1) and stained with 0.25% crystal violet. The crystal violet of fixed cells was solubilized with 1% SDS and the absorbance was photometrically determined at 560 nm.

[8] = tested on: HepG2, PLC and Hep3B cells; assay: Analysis of proliferation (cell counter); assay type: cell-based, human; settings: 0.2 μM
Procedure: 6×10^4 cells were seeded on 12-well plates and incubated with inhibitors at different concentrations for 3 days. Cell numbers were determined at various time points after trypsinization using a cell counter (CASY, Scharfe Systems, Reutlingen, Germany). Three independent experiments were performed in triplicates.

SMILES: NC1CCC(Nc2nc(NCc3ccc(-c4ccco4)nc3)c3ncn(C4CCCC4)c3n2)CC1 (centres unmarked) [BP14, N^2-(4-amino-cyclohexyl)-9-cyclopentyl-N^6-(6-furan-2-yl-pyridin-3-ylmethyl)-9H-purine-2,6-diamine]
- decrease of BrdU incorporation as compared to control [1]: more than 2 fold
- RNA polymerase II phosphorylation on serine 5 (CDK7) and serine 2 (CDK9) ([2]; HepG2 and PLC cells, below 1 μM, 24 hours): strong reduction of RNA polymerase II phosphorylation
- phosphorylation at serines 2 and 5 of RNA polymerase II ([2]; mainly AKH3sp and Hep3B cell lines, 24 h): rapid decrease in phosphorylation at serines 2 and 5 of RNA polymerase II
- IC50 ([3]; HepG2, control): 320 nM
- IC50 ([3]; HepG2, long-term exposure at 1/16 IC50): 270 nM
- IC50 ([3]; HepG2, long-term exposure at ¼ IC50): 450 nM
- IC50 ([3]; HepG2, long-term exposure at ½ IC50): 590 nM
- IC50 ([3]; HepG2, long-term exposure at ⅛ IC50): 390 nM
- IC50 ([4]; control, read-out: IC50 for BP14, Hep3B): 530 nM
- IC50 ([4]; long-term exposure at 1/16 IC50, read-out: IC50 for BP14, Hep3B): 420 nM
- IC50 ([4]; long-term exposure at ¼ IC50, read-out: IC50 for BP14, Hep3B): 450 nM
- IC50 ([4]; long-term exposure at ½ IC50, read-out: IC50 for BP14, Hep3B): 800 nM
- IC50 ([4]; long-term exposure at ⅛ IC50, read-out: IC50 for BP14, Hep3B): 380 nM
- IC50 [5]: 15 nM
- level of anti-apoptotic protein Mcl-1 [6]: large dose-dependent decrease
- reduction of clonogenic growth behavior [7]: more than 15 fold
- proliferation kinetics [8]: cytostatic effect
